# Data published in patent US20020168365A1, “Method for modulating granzyme B uptake and for identifying modulators thereof” (priority 2000, published 2002).
# Columns and labels:
# CD-MPR^+ cells [1] = test: TUNEL and annexin V apoptosis assays with grB and AD; assay type: cell-based, murine L cells transfected with human CD-MPR; conditions: 100 ng/ml grB and AD, 3 hr
# Procedure: For the in vitro killing assays, 10 pfu per cell of replication-deficient adenovirus (AD) were added subsequent to grB addition. Analysis of DNA fragmentation by TUNEL analysis has been described previously (Heibein et al., 1999). TUNEL materials (Roche Diagnostics) were used as per the manufacturer's instructions. Phosphatidylserine externalization was measured as previously described (Heibein et al., 1999) using annexin V-FITC (PharMingen). Percent specific TUNEL/annexin V positive cells was calculated as: [(% positive labeling cells with grB and AD-% positive labeling cells without grB and AD)/(100-% positive labeling cells without grB and AD)]×100.
# [2] = grB enzymatic activity (ASPase assay); assay type: biochemical, human
# Source text: Human grB was purified from the cytolytic granules of YT-Indy cells as described previously (Caputo et al., 1999). GrB was derivatized with sulfo-NHS-biotin (Pierce) or OG 488 (Molecular Probes) as per the manufacturer's directions for labeling protein. Derivatized grB was separated from unbound probe by passing the material through a Sephadex G-25 column (HiTrapθ Desalting column, Pharmacia Biotech) with saline or phosphate-buffered saline (PBS) as the buffer. Typically the concentration of unlabeled grB was ˜50 μg/ml, whereas the estimated concentration of derivatized material was ˜5 μg/ml. GrB was assayed for enzymatic activity using an ASPase assay as previously described (Caputo et al., 1993).
# procaspase-3 = test: Caspase 3 cleavage by Western blotting; assay type: cell-based, human; conditions: grB (18 nM) and AD, 3 hr
# Procedure: Cells were resuspended at 10^6 cells/ml in 0.1% BSA/DMEM. Adenovirus (10 PFU/cell) and granzyme B (grB) were added directly to the cell suspension. Cells were incubated at 37° C. for 3 h. For staurosporine killing, cells were resuspended at 10^6 cells/ml in their normal growth medium and staurosporine (2.5 μM) was added directly to the cell suspension. Cells were incubated at 37° C. for 2, 4 and 8 h. Cellular lysates were collected by directly harvesting 10^5 cells into 100 μl of sodium dodecyl sulfate-polyacrylamide gel electrophoresis (SDS-PAGE) gel loading buffer and subjected to SDS-PAGE analysis. Proteins were transferred to nitrocellulose (Micron Separations Inc.) by using a semidry transfer apparatus (Tyler Corp.) for 1 h at 150 mA. Membranes were blocked in phosphate-buffered saline (PBS) containing 0.1% Tween 20 (ICN Biomedicals Inc.) and 5% skim milk for 16 h. Caspase 3 was detected using polyclonal rabbit anti-caspase 3 at a dilution of 1:10,000. The membrane was incubated with the primary antibody for 2 h, after which the blot was washed three times in PBS containing 0.1% Tween 20. The membranes were probed with a horseradish peroxidase-conjugated goat anti-rabbit secondary antibody (Bio-Rad Laboratories) at a 1:20,000 dilution. Transferred proteins were visualized with a chemiluminescence detection system (Amersham Inc.).
# [3] = system: breast carcinoma cell lines (T47-D, MDA-MB-231, SK-BR-3, MCF-7); test: grB/AD-mediated apoptosis (TUNEL, annexin V) in carcinoma cell lines; assay type: cell-based, human
# Procedure: Cells were resuspended at 10^6 cells/ml in 0.1% BSA/DMEM. Adenovirus (10 PFU/cell) and granzyme B (grB) were added directly to the cell suspension. Cells were incubated at 37° C. for 3 h. For staurosporine killing, cells were resuspended at 10^6 cells/ml in their normal growth medium and staurosporine (2.5 μM) was added directly to the cell suspension. Cells were incubated at 37° C. for 2, 4 and 8 h. DNA fragmentation was monitored by flow cytometric analysis via the terminal deoxynucleotidyltransferase-mediated dUTP-biotin nick end labeling (TUNEL) method. Flow cytometric analysis was performed on a Becton Dickinson FACScanθ flow cytometer equipped with an argon-ion laser with 15 mW of excitation at 488 nm. Emission wavelengths were detected through the FL1 channel. Data were acquired on 10,000 cells per sample with light scatter signals at linear gain and fluorescence signals at logarithmic gain. Percent specific TUNEL positive cells was calculated as follows: [(% positive labeling cells with grB and AD−% positive labeling cells without grB and AD)/(AD−% positive labeling cells without grB and AD)]×100. Phosphatidylserine externalization was monitored using the ApoAlertθ annexin V apoptosis kit (Clontech) according to the protocol provided by the manufacturer. Flow cytometric analysis was performed on a Becton Dickinson FACScanθ flow cytometer equipped with an argon-ion laser with 15 mW of excitation at 488 nm. Emission wavelengths were detected through the FL1 channel. Data were acquired on 10,000 cells per sample with light scatter signals at linear gain and fluorescence signals at logarithmic gain. Percent specific Annexin V positive cells was calculated as follows: [(% positive labeling cells with grB and AD−% positive labeling cells without grB and AD)/(AD−% positive labeling cells without grB and AD)]×100.
# CD-MPR^+ cells [4] = test: GrB uptake (unpublished findings); assay type: cell-based, murine L cells transfected with human CD-MPR; conditions: CD-MPR-overexpressing CD-MPR^+ cells
# [5] = all the carcinoma cell lines, 3 hr
substance,measurement,setting,value
grB: Human serine proteinase granzyme B purified from the cytolytic granules of YT-Indy cells,annexin V binding after grB and AD,CD-MPR^+ cells [1],did not bind annexin V
same,grB and AD-mediated DNA fragmentation,CD-MPR^+ cells [1],resistant
same,enzymatic activity of grB,[2]; grB treated with catalytic subunit of protein phosphatase-1 (data not shown),did not lose
same,enzymatic activity of grB,[2]; grB treated with phosphatase in a phosphate-free buffer,no effect
same,cleavage of procaspase-3,procaspase-3; Jurkat cells,able to observe cleavage
same,cleavage of procaspase-3,procaspase-3; MDA-MB-231 cells,unable to observe any cleavage
same,cleavage of procaspase-3,procaspase-3; SK-BR-3 cells,unable to observe any cleavage
same,cleavage of procaspase-3,procaspase-3; T47-D cells,able to observe cleavage
same,DNA fragmentation or phosphatidylserine externalization,"[3]; MCF-7 cells, granzyme B and adenovirus",no DNA-fragmentation or phosphatidylserine externalization could be detected
same,phosphatidylserine exposure or DNA fragmentation,"[3]; T47-D cells, granzyme B and adenovirus",unable to detect any phosphatidylserine exposure or DNA fragmentation
same,annexin V binding after grB and AD,[3]; [5],did not bind annexin V
same,grB and AD-mediated DNA fragmentation,[3]; [5],resistant
same,grB uptake,CD-MPR^+ cells [4],essentially no grB uptake
